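Tested at 5 concentrations; 48 h exposure; 96-well plates; endpoints linearly interpolated, else capped at highest concentration. Abbreviation: GI50, concentration required for 50% inhibition of growth.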 Calls of active or inactive are those of the source. Cut-off read from the data, not from the text of the source: active = GI50 up to about 1.1 µM and inactive = higher. A value given as a limit tells only on which side of the number the result lay.

Experimental findings from ChEMBL document CHEMBL1201862, “PubChem BioAssay data set” (2004) are described below.

Among the test systems are SK-MEL-28; SK-OV-3; HOP-62; MDA-N; CCRF-CEM; A498; SW-620; SF-295; RPMI-8226; K562; HL-60; RXF 393; OVCAR-5; SR; OVCAR-3; NCI-H23; KM12; HCT-116; UACC-257; A549.
Holding throughout (assay): NCI anticancer screen, dose series, 48 h

On to `CCN(Cc1cc(Cl)cc(C)c1O)Cc1c(O)ccc2ccccc12`, for which the GI50 in the test with SK-MEL-28 is 17.9 µM (inactive); in the test on SK-OV-3 it was 15.2 µM (inactive); in the test with HOP-62, 12.5 µM (inactive); in the test on MDA-N it was 18.1 µM (inactive); with CCRF-CEM it was 10.5 µM (inactive); in the test with A498 it was 18.7 µM (inactive). The GI50 was 25.4 µM (inactive) in the test on SW-620; 16.9 µM (inactive) in the test with SF-295; 17.4 µM (inactive) with RPMI-8226; 19.1 µM (inactive) in the test with K562; 12 µM (inactive) with HL-60; 16.4 µM (inactive) with RXF 393. The GI50 is 17.6 µM (inactive) in the test with OVCAR-5; 16.2 µM (inactive) in the test with SR; 15 µM (inactive) in the test on OVCAR-3; 15.6 µM (inactive) with NCI-H23; 17.3 µM (inactive) in the test on KM12; 16.7 µM (inactive) with HCT-116. Further, the GI50 is 15.8 µM (inactive) with UACC-257 and 18.8 µM (inactive) in the test with A549.

On to `CCOC(=O)C#Cc1ccc([N+](=O)[O-])cc1`, for which the GI50 was 5.52 µM (inactive) with SK-MEL-28; 12.7 µM (inactive) in the test with SK-OV-3; 3.24 µM (inactive) in the test on HOP-62; 3.19 µM (inactive) in the test with MDA-N; 1.1 µM (active) in the test on CCRF-CEM; 17.5 µM (inactive) with A498. The GI50 was 2.28 µM (inactive) in the test with SW-620; 12.9 µM (inactive) in the test with SF-295; 1.98 µM (inactive) with RPMI-8226; 2.07 µM (inactive) in the test on K562; 1.73 µM (inactive) with HL-60; 1.28 µM (inactive) in the test on RXF 393. In addition, the GI50 with OVCAR-5 was 1 µM (active); with SR, 1.77 µM (inactive); with OVCAR-3 it was 1.71 µM (inactive); in the test with NCI-H23 it was 2.59 µM (inactive); with KM12 it was 1.82 µM (inactive); in the test on HCT-116, 1.66 µM (inactive). Besides, the GI50 with UACC-257 is 3.32 µM (inactive); in the test with A549, 10.4 µM (inactive).

Consider `CCOC(=O)CSc1nnc(C(Sc2nc(-c3ccccc3)c(-c3ccccc3)[nH]2)C(C)C)n1-c1ccccc1` (stereo not given), for which the GI50 in the test on SK-MEL-28 was 18.2 µM (inactive); with SK-OV-3, > 10 µM (inactive); with HOP-62, > 10 µM (inactive); in the test with MDA-N, 30.4 µM (inactive); in the test on CCRF-CEM it was 14.3 µM (inactive); with A498, > 10 µM (inactive). Also, the GI50 was 19 µM (inactive) with SW-620; > 10 µM (inactive) with SF-295; 33.4 µM (inactive) in the test with RPMI-8226; 24.7 µM (inactive) in the test on K562; 20 µM (inactive) in the test with HL-60; 26.2 µM (inactive) in the test on RXF 393. Besides, the GI50 with OVCAR-5 is 18.9 µM (inactive); in the test on SR, 31.2 µM (inactive); with OVCAR-3, > 10 µM (inactive); in the test on NCI-H23, > 10 µM (inactive); in the test with KM12, 17.7 µM (inactive); in the test on HCT-116, 14.5 µM (inactive). The values for the GI50 in the test on UACC-257 and with A549 were 14 µM (inactive) and 19.2 µM (inactive), respectively.
